Results taken from US4861788A, “Antibacterial 1-normon-2-yl-heterocyclic compounds” (Beecham Group plc, priority 1983, dated 1989).
In brackets after ≈: the same amount, converted by molar mass.

Experiments:
M. hyopneumoniae JF 435 = experiment: MIC against Mycoplasma in vitro (Friis broth with agarose); format: cell-based; settings: Mesomycoplasma hyopneumoniae, JF435, 144 h; M. hyopneumoniae JF 435; 6 days at 37° C; read-out: MIC
M. hyopneumoniae Str. 11 = experiment: as above; format: cell-based; settings: Mesomycoplasma hyopneumoniae, 144 h; M. hyopneumoniae Str. 11; 6 days at 37° C; read-out: MIC
[1] = tested on: M. hyopneumoniae J2206/183^b; experiment: as above; format: cell-based; settings: Mesomycoplasma hyopneumoniae, 144 h; M. hyopneumoniae J2206/183^b; 6 days at 37° C; read-out: MIC
M. hyopneumoniae UCD 1 = experiment: as above; format: cell-based; settings: Mesomycoplasma hyopneumoniae, UCD1, 144 h; M. hyopneumoniae UCD 1; 6 days at 37° C; read-out: MIC
M. hyopneumoniae TAM 6N = experiment: as above; format: cell-based; settings: Mesomycoplasma hyopneumoniae, TAM6N, 144 h; M. hyopneumoniae TAM 6N; 6 days at 37° C; read-out: MIC
M. hyorhinis ATCC 23234 = experiment: as above; format: cell-based; settings: Mesomycoplasma hyorhinis, ATCC23234, 144 h; M. hyorhinis ATCC 23234; 6 days at 37° C; read-out: MIC
M. gallisepticum S6 = experiment: as above; format: cell-based; settings: Mycoplasmoides gallisepticum, 144 h; M. gallisepticum S6; 6 days at 37° C; read-out: MIC
M. pneumoniae ATCC 15492 = experiment: as above; format: cell-based; settings: Mycoplasmoides pneumoniae, ATCC15492, 144 h; M. pneumoniae ATCC 15492; 6 days at 37° C; read-out: MIC
Bacillus subtilis 6633 = experiment: MIC against human bacteria in vitro (nutrient agar, chocolated horse blood); format: cell-based; settings: human; Bacillus subtilis 6633; 18 hours at 37° C; read-out: MIC
Protocol: (§1) The activity of the normonyl derivaties of the Examples against various bacteria which are important in diseases of humans, was assayed in vitro using serial dilutions in nurient agar with 5% chocolated horse blood.

[2] = tested on: Corynebacterium xerosis 9755; experiment: as above; format: cell-based; settings: human; Corynebacterium xerosis 9755; 18 hours at 37° C; read-out: MIC
Protocol: as §1

E. coli ESS = experiment: as above; format: cell-based; settings: Escherichia coli; human; E. coli ESS; 18 hours at 37° C; read-out: MIC
Protocol: as §1

E. coli NCTC 10418 = experiment: as above; format: cell-based; settings: Escherichia coli, NCTC10418; human; E. coli NCTC 10418; 18 hours at 37° C; read-out: MIC
Protocol: as §1

[3] = tested on: Haemophilus influenzae Wy21; experiment: as above; format: cell-based; settings: human; Haemophilus influenzae Wy21; 18 hours at 37° C; read-out: MIC
Protocol: as §1

K. aerogenes A = experiment: as above; format: cell-based; settings: Klebsiella aerogenes; human; K. aerogenes A; 18 hours at 37° C; read-out: MIC
Protocol: as §1

P. mirabilis 889 = experiment: as above; format: cell-based; settings: Proteus mirabilis; human; P. mirabilis 889; 18 hours at 37° C; read-out: MIC
Protocol: as §1

[4] = tested on: Pasteurella multocida 1633; experiment: as above; format: cell-based; settings: human; Pasteurella multocida 1633; 18 hours at 37° C; read-out: MIC
Protocol: as §1

[5] = tested on: Ps. aeruginosa NCTC 10662; experiment: as above; format: cell-based; settings: Pseudomonas aeruginosa, NCTC10662; human; Ps. aeruginosa NCTC 10662; 18 hours at 37° C; read-out: MIC
Protocol: as §1

Sarcina lutea 8340 = experiment: as above; format: cell-based; settings: Micrococcus luteus; human; Sarcina lutea 8340; 18 hours at 37° C; read-out: MIC
Protocol: as §1

Staph. aureus Oxford [6] = experiment: as above; format: cell-based; settings: Staphylococcus aureus; human; Staph. aureus Oxford; 18 hours at 37° C; read-out: MIC
Protocol: as §1

Staph. aureus Russell = experiment: as above; format: cell-based; settings: Staphylococcus aureus; human; Staph. aureus Russell; 18 hours at 37° C; read-out: MIC
Protocol: as §1

Staph. aureus W2827 = experiment: as above; format: cell-based; settings: Staphylococcus aureus; human; Staph. aureus W2827; 18 hours at 37° C; read-out: MIC
Protocol: as §1

Strep. agalactiae 2788-B = experiment: as above; format: cell-based; settings: Streptococcus agalactiae; human; Strep. agalactiae 2788-B; 18 hours at 37° C; read-out: MIC
Protocol: as §1

Strep. faecalis I = experiment: as above; format: cell-based; settings: Enterococcus faecalis; human; Strep. faecalis I; 18 hours at 37° C; read-out: MIC
Protocol: as §1

[7] = tested on: Strep. pyogenes R80/421-A; experiment: as above; format: cell-based; settings: Streptococcus pyogenes; human; Strep. pyogenes R80/421-A; 18 hours at 37° C; read-out: MIC
Protocol: as §1

Strep. spp. 64/848-C = experiment: as above; format: cell-based; settings: human; Strep. spp. 64/848-C; 18 hours at 37° C; read-out: MIC
Protocol: as §1

S. typhimurium S18 = experiment: MIC against veterinary bacteria in vitro (Diagnostic Sensitivity Test Agar); settings: Salmonella enterica, 18 h
Protocol: (§2) The activity of the normonyl derivatives of the Examples against various veterinarily important bacteria, was assayed in vitro using two-fold serial dilutions in Diagnostic Sensitivity Test Agar inoculated with 10^4 organisms.

Past. haemolytica PA5 = experiment: as above; settings: Mannheimia haemolytica, PA5, 18 h
Protocol: as §2

[8] = tested on: Corynebacterium pyogenes CY1; experiment: as above; settings: CY1, 18 h
Protocol: as §2

[9] = tested on: Staph. aureus B4 (pen. resistant); experiment: as above; settings: Staphylococcus aureus, 18 h
Protocol: as §2

[10] = tested on: Staph. aureus 152 (pen. sens); experiment: as above; settings: Staphylococcus aureus, 18 h
Protocol: as §2

Staph. aureus Oxford [11] = experiment: as above; settings: Staphylococcus aureus, 18 h
Protocol: as §2

[12] = tested on: Strep. suis (group D) SPS11; experiment: as above; settings: Streptococcus suis, 18 h
Protocol: as §2

Strep. dysgalactiae SPD1 = experiment: as above; settings: Streptococcus dysgalactiae, SPD1, 18 h
Protocol: as §2

Row | SMILES | MIC (M. hyopneumoniae JF 435) | MIC (M. hyopneumoniae Str. 11) | MIC [1] | MIC (M. hyopneumoniae UCD 1) | MIC (M. hyopneumoniae TAM 6N) | MIC (M. hyorhinis ATCC 23234) | MIC (M. gallisepticum S6) | MIC (M. pneumoniae ATCC 15492) | MIC (Bacillus subtilis 6633) | MIC [2] | MIC (E. coli ESS) | MIC (E. coli NCTC 10418) | MIC [3] | MIC (K. aerogenes A) | MIC (P. mirabilis 889) | MIC [4] | MIC [5] | MIC (Sarcina lutea 8340) | MIC (Staph. aureus Oxford [6]) | MIC (Staph. aureus Russell) | also measured
1 | CC(=Cc1nnnn1Cc1ccc([N+](=O)[O-])cc1)CC1OCC(CC2OC2C(C)C(C)O)C(O)C1O (stereo not drawn) [Example 12, 1-(p-Nitrobenzyl)-5-(1-normon-2-yl)tetrazole A] | 5 µg/mL (≈ 9.93 µM) | 2.5 µg/mL (≈ 4.96 µM) | 5 µg/mL (≈ 9.93 µM) | 5 µg/mL (≈ 9.93 µM) | 5 µg/mL (≈ 9.93 µM) | 5 µg/mL (≈ 9.93 µM) | > 10 µg/mL | > 10 µg/mL | 100 µg/mL (≈ 199 µM) | ≥ 100 µg/mL | 100 µg/mL (≈ 199 µM) | > 100 µg/mL | 2.5 µg/mL (≈ 4.96 µM) | > 100 µg/mL | > 100 µg/mL | 5 µg/mL (≈ 9.93 µM) | > 100 µg/mL | ≥ 100 µg/mL | 100 µg/mL (≈ 199 µM) | ≥ 100 µg/mL | MIC (Staph. aureus W2827): 100 µg/mL (≈ 199 µM); MIC (Strep. agalactiae 2788-B): 50 µg/mL (≈ 99.3 µM); MIC (Strep. faecalis I): > 100 µg/mL; MIC [7]: 50 µg/mL (≈ 99.3 µM); MIC (Strep. spp. 64/848-C): 100 µg/mL (≈ 199 µM); MIC (S. typhimurium S18): > 80 µg/mL; MIC (Past. haemolytica PA5): > 80 µg/mL; MIC [8]: > 80 µg/mL; MIC [9]: > 80 µg/mL; MIC [10]: > 80 µg/mL; MIC (Staph. aureus Oxford [11]): > 80 µg/mL; MIC [12]: > 80 µg/mL; MIC (Strep. dysgalactiae SPD1): > 80 µg/mL
2 | CC(=Cc1nc(-c2ccccc2)no1)CC1OCC(CC2OC2C(C)C(C)O)C(O)C1O (stereo not drawn) [Example 15, 5-(1-Normon-2-yl)-3-phenyl-1,2,4-oxadiazole A] | 10 µg/mL (≈ 22.5 µM) | 5 µg/mL (≈ 11.2 µM) | 10 µg/mL (≈ 22.5 µM) | 10 µg/mL (≈ 22.5 µM) | 10 µg/mL (≈ 22.5 µM) | 5 µg/mL (≈ 11.2 µM) | > 10 µg/mL | > 10 µg/mL | 32 µg/mL (≈ 72 µM) | > 128 µg/mL | 8 µg/mL (≈ 18 µM) | > 128 µg/mL | 4 µg/mL (≈ 9 µM) | > 128 µg/mL | > 128 µg/mL | 64 µg/mL (≈ 144 µM) | > 128 µg/mL | > 128 µg/mL | 16 µg/mL (≈ 36 µM) | 32 µg/mL (≈ 72 µM) | MIC (Staph. aureus W2827): 32 µg/mL (≈ 72 µM); MIC (Strep. agalactiae 2788-B): 64 µg/mL (≈ 144 µM); MIC (Strep. faecalis I): > 128 µg/mL; MIC [7]: 32 µg/mL (≈ 72 µM); MIC (Strep. spp. 64/848-C): 64 µg/mL (≈ 144 µM); MIC (S. typhimurium S18): > 80 µg/mL; MIC (Past. haemolytica PA5): > 80 µg/mL; MIC [8]: > 80 µg/mL; MIC [9]: 5 µg/mL (≈ 11.2 µM); MIC [10]: 5 µg/mL (≈ 11.2 µM); MIC (Staph. aureus Oxford [11]): 40 µg/mL (≈ 90 µM); MIC [12]: > 80 µg/mL; MIC (Strep. dysgalactiae SPD1): 10 µg/mL (≈ 22.5 µM)
